# Legend:
# [1] = test system: A549; experiment: Antiproliferative activity against human A549 cells assessed as cell viability after 72 hrs by MTT assay; format: functional
# [2] = test system: HCT-116; experiment: Antiproliferative activity against human HCT-116 cells assessed as cell viability after 72 hrs by MTT assay; format: functional
# [3] = test system: HepG2; experiment: Antiproliferative activity against human HepG2 cells assessed as cell viability after 72 hrs by MTT assay; format: functional
# [4] = Toxicity in nude mouse xenografted with human HCT-116 cells assessed as change in body weight at 12.5 mg/kg, po for 21 days (reference value: 2.2%); format: organism-based; conditions: in vivo, 504 h, time 21 day
# [5] = Cytotoxicity against HUVEC assessed as cell viability after 72 hrs by MTT assay; format: cell-based; conditions: human, HUVEC cells
# [6] = test system: HCT-116; experiment: Induction of apoptosis in human HCT-116 cells assessed as viable cells at 40 nM after 24 hrs by annexinV and 7-ADD staining based flow cytometry (reference value: 96.7%); format: functional; conditions: read-out: Activity
# [7] = test system: HCT-116; experiment: Antitumor activity against human HCT-116 cells xenografted in nude mouse assessed as inhibition of tumor growth at 12.5 mg/kg, po for 21 days; format: functional; conditions: HCT-116, po, 504 h, time 21 day, read-out: TGI
# [8] = test system: HCT-116; experiment: Induction of cell cycle arrest in human HCT-116 cells assessed as accumulation of cells at G2/M phase at 10 nM after 24 hrs by flow cytometry (reference value: 16.35%); format: functional
# [9] = test system: HCT-116; experiment: Induction of apoptosis in human HCT-116 cells assessed as necrotic cells at 40 nM after 24 hrs by annexinV and 7-ADD staining based flow cytometry (reference value: 0.9%); format: functional
# [10] = test system: HCT-116; experiment: Induction of apoptosis in human HCT-116 cells assessed as necrotic cells at 20 nM after 24 hrs by annexinV and 7-ADD staining based flow cytometry (reference value: 0.9%); format: functional
# [11] = biological target: T1, Tubulin (Homo sapiens) (UniProt P68371+Q9H4B7+P0DPH7+P68366+Q13509+Q71U36+P04350+Q3ZCM7+P07437+P68363+Q9BQE3+Q6PEY2+Q13885+Q9BVA1+Q9BUF5); experiment: Inhibition of tubulin polymerization in human HCT-116 cells assessed as microtubule network polymerization after 24 hrs by immunofluorescence analysis; format: cell-based; conditions: dose 20-40 nM
# [12] = test system: HCT-116; experiment: Induction of apoptosis in human HCT-116 cells assessed as late apoptotic cells at 20 nM after 24 hrs by annexinV and 7-ADD staining based flow cytometry (reference value: 1.5%); format: functional
# [13] = test system: HCT-116; experiment: Induction of cell cycle arrest in human HCT-116 cells assessed as accumulation of cells at S phase at 10 nM after 24 hrs by flow cytometry (reference value: 43.12%); format: functional
# [14] = biological target: T1, Tubulin (Homo sapiens); experiment: Inhibition of tubulin polymerization in human HCT-116 cells assessed as microtubule spindle formation after 24 hrs by immunofluorescence analysis; format: cell-based; conditions: dose 20-40 nM
# [15] = test system: HCT-116; experiment: Induction of cell cycle arrest in human HCT-116 cells assessed as accumulation of cells at S phase at 20 nM after 24 hrs by flow cytometry (reference value: 43.12%); format: functional
# [16] = test system: HCT-116; experiment: Induction of apoptosis in human HCT-116 cells assessed as early apoptotic cells at 40 nM after 24 hrs by annexinV and 7-ADD staining based flow cytometry (reference value: 0.9%); format: functional
# [17] = biological target: Tubulin beta (Homo sapiens) (UniProt P68371+Q9H4B7+Q13509+P04350+Q3ZCM7+P07437+Q13885+Q9BVA1+Q9BUF5+A6NNZ2); experiment: Inhibition of N,N'-Ethylenebis(iodoacetamide) binding to beta-tubulin in human HCT-116 cells assessed as reduction in EBI/beta-tubulin adduct formation preincubated for 2 hrs followed by EBI addition and measured after 1.5 hrs by Western blot analysis; format: cell-based; conditions: dose 0.2-25 µM, time 3.5 hrs
# [18] = test system: SW-620; experiment: Antiproliferative activity against human SW-620 cells assessed as cell viability after 72 hrs by MTT assay; format: functional
# [19] = test system: HT-29; experiment: Antiproliferative activity against human HT-29 cells assessed as cell viability after 72 hrs by MTT assay; format: functional
# [20] = test system: HCT-116; experiment: Induction of cell cycle arrest in human HCT-116 cells assessed as accumulation of cells at G2/M phase at 20 nM after 24 hrs by flow cytometry (reference value: 16.35%); format: functional
# [21] = test system: HCT-116; experiment: Induction of apoptosis in human HCT-116 cells assessed as necrotic cells at 10 nM after 24 hrs by annexinV and 7-ADD staining based flow cytometry (reference value: 0.9%); format: functional
# [22] = test system: HCT-116; experiment: Antitumor activity against human HCT-116 cells xenografted in nude mouse assessed as inhibition of tumor growth at 25 mg/kg, po for 21 days; format: functional; conditions: HCT-116, po, 504 h, time 21 day, read-out: TGI
# [23] = test system: HCT-116; experiment: Induction of cell cycle arrest in human HCT-116 cells assessed as accumulation of cells at G1 phase at 20 nM after 24 hrs by flow cytometry (reference value: 40.5%); format: functional
# [24] = test system: HCT-116; experiment: Induction of apoptosis in human HCT-116 cells assessed as early apoptotic cells at 10 nM after 24 hrs by annexinV and 7-ADD staining based flow cytometry (reference value: 0.9%); format: functional
# [25] = test system: HCT-116; experiment: Induction of apoptosis in human HCT-116 cells assessed as early apoptotic cells at 20 nM after 24 hrs by annexinV and 7-ADD staining based flow cytometry (reference value: 0.9%); format: functional
# [26] = test system: HCT-116; experiment: Induction of apoptosis in human HCT-116 cells assessed as late apoptotic cells at 40 nM after 24 hrs by annexinV and 7-ADD staining based flow cytometry (reference value: 1.5%); format: functional
# [27] = test system: HCT-116; experiment: Induction of cell cycle arrest in human HCT-116 cells assessed as accumulation of cells at G1 phase at 10 nM after 24 hrs by flow cytometry (reference value: 40.5%); format: functional
# [28] = test system: HCT-116; experiment: Induction of apoptosis in human HCT-116 cells assessed as viable cells at 20 nM after 24 hrs by annexinV and 7-ADD staining based flow cytometry (reference value: 96.7%); format: functional; conditions: read-out: Activity
# [29] = test system: HCT-116; experiment: Induction of apoptosis in human HCT-116 cells assessed as late apoptotic cells at 10 nM after 24 hrs by annexinV and 7-ADD staining based flow cytometry (reference value: 1.5%); format: functional
# [30] = Toxicity in nude mouse xenografted with human HCT-116 cells assessed as change in body weight at 25 mg/kg, po for 21 days (reference value: 2.2%); format: organism-based; conditions: in vivo, 504 h, time 21 day
# [31] = test system: 1-87 tumor cell line; experiment: (§1) Inhibition of porcine brain tubulin polymerization by fluorescence based assay; conditions: Sus scrofa domesticus
# [32] = as §1; format: cell-based, Sus scrofa domesticus, 1-87 tumor cell line
# [33] = biological target: T1, Tubulin (Homo sapiens); experiment: Inhibition of tubulin polymerization in human HCT-116 cells assessed as complete microtubule depolymerization at 40 nM after 24 hrs by immunofluorescence analysis; format: cell-based
# [34] = test system: HCT-116; experiment: Induction of apoptosis in human HCT-116 cells assessed as viable cells at 10 nM after 24 hrs by annexinV and 7-ADD staining based flow cytometry (reference value: 96.7%); format: functional; conditions: read-out: Activity
structure (smiles),measurement,setting,value
COc1ccc(Nc2n[nH]c3cc(C)ccc23)cc1,GI50,[1],> 25 µM
same,GI50,[2],> 25 µM
same,GI50,[3],> 25 µM
COc1cc(Nc2n[nH]c3cc(C)ccc23)cc(OC)c1OC,Activity,[4],2.7%
same,GI50 at 72 h,[5],> 25 µM
same,viability at 0.04 µM,[6],62.2%
same,inhibition in vivo at 12.5 mg/kg,[7],27.4%
same,Activity,[8],29%
same,GI50,[1],0.033 µM
same,Activity,[9],1.5%
same,Activity,[10],2.1%
same,inhibition,[11],Dose-dependent effect
same,Activity,[12],13.7%
same,Activity,[13],36.46%
same,inhibition,[14],Dose-dependent effect
same,Activity,[15],4.68%
same,Activity,[16],15.4%
same,inhibition,[17],Dose-dependent effect
same,GI50,[18],0.008 µM
same,GI50,[19],0.031 µM
same,Activity,[20],81.07%
same,Activity,[21],2.7%
same,inhibition in vivo at 25 mg/kg,[22],45.3%
same,GI50,[2],0.015 µM
same,Activity,[23],14.25%
same,Activity,[24],4.7%
same,GI50,[3],0.027 µM
same,Activity,[25],8.9%
same,Activity,[26],20.9%
same,Activity,[27],34.54%
same,viability at 0.02 µM,[28],75.4%
same,Activity,[29],12.7%
same,Activity,[30],6.5%
same,inhibition,[31],Dose-dependent effect
same,IC50,[32],3.39 µM
same,inhibition,[33],100%
same,viability at 0.01 µM,[34],79.9%
COc1cc(Nc2n[nH]c3cc(C)ccc23)cc(OC)c1,GI50,[1],1.1 µM
same,GI50,[2],0.7 µM
same,GI50,[3],0.2 µM
COc1ccc(Nc2n[nH]c3cc(F)ccc23)cc1,GI50,[1],> 25 µM
same,GI50,[2],> 25 µM
same,GI50,[3],> 25 µM
COc1cc(Nc2n[nH]c3cccc(C)c23)cc(OC)c1OC,GI50,[1],6.1 µM
same,GI50,[2],9.3 µM
same,GI50,[3],10.1 µM
Cc1ccc2[nH]nc(Nc3ccc4c(c3)OCO4)c2c1,GI50,[1],> 25 µM
same,GI50,[2],> 25 µM
same,GI50,[3],> 25 µM
COc1cc(Nc2n[nH]c3cc(F)ccc23)cc(OC)c1OC,GI50,[1],21.3 µM
same,GI50,[2],5.3 µM
same,GI50,[3],16 µM
Fc1ccc2c(Nc3ccc4c(c3)OCO4)n[nH]c2c1,GI50,[1],> 25 µM
same,GI50,[2],> 25 µM
same,GI50,[3],> 25 µM
COc1cc(Nc2n[nH]c3ccc(C)cc23)cc(OC)c1,GI50,[1],> 25 µM
same,GI50,[2],> 25 µM
same,GI50,[3],> 25 µM
COc1ccc(Nc2n[nH]c3cc(OC)ccc23)cc1,GI50,[1],> 25 µM
same,GI50,[2],24.8 µM
same,GI50,[3],> 25 µM
COc1ccc(Nc2n[nH]c3ccc(C)cc23)cc1,GI50,[1],> 25 µM
same,GI50,[2],> 25 µM
same,GI50,[3],> 25 µM
COc1cc(Nc2n[nH]c3ccccc23)cc(OC)c1OC,GI50,[1],19.4 µM
same,GI50,[2],18.9 µM
same,GI50,[3],24.1 µM

# Source: ChEMBL document CHEMBL4732043, “The discovery of novel indazole derivatives as tubulin colchicine site binding agents that displayed potent antitumor activity both in vitro and in vivo” (Eur J Med Chem, 2020)
